Experimental data from patent US12637430B2, “Interleukin-17 (IL-17) inhibitors” (priority 2020, dated 2026).
pIC50: −log10 of the molar value.

Assays:
[1] = molecular target: T1, human IL-17A (Homo sapiens, UniProt Q16552); assay: IL-17A enzyme-linked immunosorbent assay (competitive ELISA, IL-17A/IL-17R binding)
T1 construct: purchased Sino Biological Inc. 12047-H07B
T1 sequence (Q16552 24-155): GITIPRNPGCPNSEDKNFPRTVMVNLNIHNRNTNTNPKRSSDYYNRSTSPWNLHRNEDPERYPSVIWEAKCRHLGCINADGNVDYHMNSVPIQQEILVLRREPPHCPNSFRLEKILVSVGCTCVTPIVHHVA
Procedure: The inhibition of receptor-ligand binding by human IL-17A inhibitors was quantified by competitive ELISA. 0.2 μg/mL of IL-17A (Sino Biological Inc. Cat #12047-H07B) was added in a 96-well plate at 100 μl per well for incubation for 30 min under 37° C. The 96-well plate was washed with PBST (PBS, 0.05% Tween-20) at 200 μl per well for 4 times, and then added with 200 μl of 5% skim milk and placed on a shaker for incubation at 25° C. for 30 min. The compound to be tested was prepared at 100× concentration ranging from 0.003 μM to 30 μM. After washed with PBST (PBS, 0.05% Tween-20) 4 times, the plate was added with 89 μl of PBST and 1 μl of the compound to be tested at 100× concentration followed by uniformly mixing and pre-incubation at 25° C. for 10 min. Then the plate was added with 10 μl of 16 nM IL-17R, and incubated on a shaker at 25° C. for 30 min. After washed for 4 times, the plate was added with 100 μl of anti-Fc-tag horseradish peroxidase (HRP)-conjugated antibody, and incubated on a shaker at 25° C. for 30 min. After washed 4 times, the plate was added with 100 μl of 3,3′, 5,5″-tetramethylbenzidine (TMB) substrate solution, and incubated at 25° C. in the dark. Then the plate was added with 20% HCl, followed by detection of the light absorption value at a wavelength of 450 nm by a microplate reader. The compounds prepared in the above examples were tested for human IL-17A inhibitory activity according to the above method.

[2] = molecular target: T2, human IL-17A protein (Homo sapiens, UniProt Q16552); assay: Inhibition of chemokine GROα/CXCL1 generation induced by human IL-17A protein in HT-29 cell; type: cell-based
T2 construct: purchased R&D 317-ILB
T2 sequence (Q16552 20-155 limits assumed): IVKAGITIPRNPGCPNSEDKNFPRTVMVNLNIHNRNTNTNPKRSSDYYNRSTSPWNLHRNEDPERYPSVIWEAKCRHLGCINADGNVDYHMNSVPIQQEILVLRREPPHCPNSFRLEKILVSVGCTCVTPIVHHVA
Procedure: HT-29 (Zhongyuan Gongchuang Technology Co., Ltd. of Chengdu, Sichuan) was added to a 96-well plate at 5×10^4 cells/well, and cultured overnight in a incubator at 37° C. A mixture of 30 ng/mL of human IL-17A protein (R&D, #317-ILB) and IL-17A small molecule inhibitors with gradient concentrations or 0.3 μg/mL of positive control IL-17A antibody (R&D, #AF-317-NA) was incubated at 37° C. for 1 h, and then added to the above-mentioned 96-well plate, and incubated with HT-29 cells at 37° C. for 48 hours. Then the GROα level in the cell culture supernatant was detected by an ELISA kit (Cisbio, #62HCXC1PEG) of the GROα.
According to the methods described in Experimental Examples 1 and 2, the compounds prepared in the above-mentioned examples were subjected to the experiment on inhibition of chemokine GROα/CXCL1 generation induced by human IL-17A protein in HT-29 cell.

Compound	pIC50 [1]	pIC50 [2]
Cn1nccc1C(=O)N[C@H](C(=O)Nc1ccc(C2CCOCC2)cc1)C(C1CCC1)C1(C)CC1 (stereo partly shown) [Compound 2]	7.18	6.26
Cn1nccc1C(=O)N[C@H](C(=O)Nc1ccc(C2CCOCC2)cn1)C(C1CCC1)C1(C)CC1 (stereo partly shown) [Compound 3]	7.17	5.80
Cn1nccc1C(=O)N[C@H](C(=O)Nc1cnc(C2CCOCC2)c(F)c1)C(C1CCC1)C1(C)CC1 (stereo partly shown) [Compound 4]	7.19	6.22
Cn1nccc1C(=O)N[C@H](C(=O)Nc1ccc(N2CCOCC2)nc1)C(C1CCC1)C1(C)CC1 (stereo partly shown) [Compound 8]	6.63	
C[C@@H]1COCCN1c1ccc(NC(=O)[C@@H](NC(=O)c2ccnn2C)C(C2CCC2)C2(C)CC2)cn1 (stereo partly shown) [Compound 10]	7.39	5.13
C[C@H]1COCCN1c1ccc(NC(=O)[C@@H](NC(=O)c2ccnn2C)C(C2CCC2)C2(C)CC2)cn1 (stereo partly shown) [Compound 11]	7.25	4.97
CC(C)[C@H]1COCCN1c1ccc(NC(=O)[C@@H](NC(=O)c2ccnn2C)C(C2CCC2)C2(C)CC2)cn1 (stereo partly shown) [Compound 12]	7.40	4.87
CC(C)[C@@H]1COCCN1c1ccc(NC(=O)[C@@H](NC(=O)c2ccnn2C)C(C2CCC2)C2(C)CC2)cn1 (stereo partly shown) [Compound 13]	6.19	
CC[C@H]1COCCN1c1ccc(NC(=O)[C@@H](NC(=O)c2ccnn2C)C(C2CCC2)C2(C)CC2)cn1 (stereo partly shown) [Compound 14]	7.68	5.14
CC[C@@H]1COCCN1c1ccc(NC(=O)[C@@H](NC(=O)c2ccnn2C)C(C2CCC2)C2(C)CC2)cn1 (stereo partly shown) [Compound 15]	7.31	5.55
C[C@@H]1CN(c2ccc(NC(=O)[C@@H](NC(=O)c3ccnn3C)C(C3CCC3)C3(C)CC3)cn2)CCO1 (stereo partly shown) [Compound 16]	7.00	4.93
Cn1nccc1C(=O)N[C@H](C(=O)Nc1ccc(N2CCOCC2C2CC2)nc1)C(C1CCC1)C1(C)CC1 (stereo partly shown) [Compound 17]	6.87	
Cn1nccc1C(=O)N[C@H](C(=O)Nc1ccc(N2CCOC[C@H]2CO)nc1)C(C1CCC1)C1(C)CC1 (stereo partly shown) [Compound 18]	6.61	
Cn1nccc1C(=O)N[C@H](C(=O)Nc1cnc(N2CCOCC2)c(F)c1)C(C1CCC1)C1(C)CC1 (stereo partly shown) [Compound 19]	7.14	5.50
CC1CN(C)CCN1c1ccc(NC(=O)[C@@H](NC(=O)c2ccnn2C)C(C2CCC2)C2(C)CC2)cn1 (stereo partly shown) [Compound 20]	5.03	
CCN1CCN(c2ccc(NC(=O)[C@@H](NC(=O)c3ccnn3C)C(C3CCC3)C3(C)CC3)cn2)[C@H](C)C1 (stereo partly shown) [Compound 21]	4.77	
CC(C)N1CCN(c2ccc(NC(=O)[C@@H](NC(=O)c3ccnn3C)C(C3CCC3)C3(C)CC3)cn2)C(C)C1 (stereo partly shown) [Compound 22]	4.86	
Cn1nccc1C(=O)N[C@H](C(=O)Nc1ccc2c(c1)NC(=O)C21CCOCC1)C(C1CCC1)C1(C)CC1 (stereo partly shown) [Compound 23]	7.37	7.19
C[C@@H]1CN(c2ccc(NC(=O)[C@@H](NC(=O)c3ccnn3C)C(C3CCC3)C3(C)CC3)cn2)CCN1 (stereo partly shown) [Compound 24]	< 4.40	
Cn1nccc1C(=O)N[C@H](C(=O)Nc1ccc2c(c1)NC(=O)C21CCOCC1)[C@H](c1ccccc1)C1(C)CC1 [Compound 25]	7.49	6.38
Cn1nccc1C(=O)N[C@H](C(=O)Nc1ccc2c(c1)NC(=O)C21CCOCC1)[C@H](c1ccccc1Cl)C1(C)CC1 [Compound 26]	7.02	6.60
CN1C(=O)C2(CCOCC2)c2ccc(NC(=O)[C@@H](NC(=O)c3ccnn3C)[C@H](c3ccccc3Cl)C3(C)CC3)cc21 [Compound 27]	6.98	5.97
Cn1nccc1C(=O)N[C@H](C(=O)Nc1ccc(C(C)(C)c2nnc(C3CCC3)o2)cc1)C(C1CCC1)C1(C)CC1 (stereo partly shown) [Compound 36]	5.89	

Compound	pIC50 [1]	pIC50 [2]
Cc1n[nH]c(C)c1-c1ccc(NC(=O)[C@@H](NC(=O)c2ccnn2C)C(C2CCC2)C2(C)CC2)cn1 (stereo partly shown) [Compound 37]	7.74	6.59
Cc1n[nH]c(C)c1-c1ccc(NC(=O)[C@@H](NC(=O)c2ccnn2C)C(C2CC2)C2CC2)cn1 [Compound 38]	6.41	5.35
CCn1nccc1C(=O)N[C@H](C(=O)Nc1ccc(-c2c(C)n[nH]c2C)nc1)C(C1CC1)C1CC1 [Compound 39]	6.89	6.29
Cc1n[nH]c(C)c1-c1ccc(NC(=O)[C@@H](NC(=O)c2ccnn2C(C)C)C(C2CC2)C2CC2)cn1 [Compound 40]	6.93	6.11
Cc1nonc1C(=O)N[C@H](C(=O)Nc1ccc(-c2c(C)n[nH]c2C)nc1)C(C1CC1)C1CC1 [Compound 41]	5.94	5.83
CCc1nocc1C(=O)N[C@H](C(=O)Nc1ccc(-c2c(C)n[nH]c2C)nc1)C(C1CC1)C1CC1 [Compound 42]	6.77	
CCc1nonc1C(=O)N[C@H](C(=O)Nc1ccc(-c2c(C)n[nH]c2C)nc1)C(C1CC1)C1CC1 [Compound 43]	6.34	
Cc1conc1C(=O)N[C@H](C(=O)Nc1ccc(-c2c(C)n[nH]c2C)nc1)C(C1CC1)C1CC1 [Compound 44]	5.56	
Cc1n[nH]c(C)c1-c1ccc(NC(=O)[C@@H](NC(=O)c2nocc2C(C)C)C(C2CC2)C2CC2)cn1 [Compound 45]	6.29	
Cc1nocc1C(=O)N[C@H](C(=O)Nc1ccc(-c2c(C)n[nH]c2C)nc1)C(C1CC1)C1CC1 [Compound 46]	6.95	6.07
Cc1n[nH]c(C)c1-c1ccc(NC(=O)[C@@H](NC(=O)c2ncnn2C)C(C2CC2)C2CC2)cn1 [Compound 47]	4.81	
Cc1n[nH]c(C)c1-c1ccc(NC(=O)[C@@H](NC(=O)c2nonc2C(C)C)C(C2CC2)C2CC2)cn1 [Compound 48]	6.80	5.52
Cc1n[nH]c(C)c1-c1ccc(NC(=O)[C@@H](NC(=O)c2ccn(C3CC3)n2)C(C2CC2)C2CC2)cn1 [Compound 49]	6.27	
Cc1n[nH]c(C)c1-c1ccc(NC(=O)[C@@H](NC(=O)c2ccnn2C2CC2)C(C2CC2)C2CC2)cn1 [Compound 50]	4.55	
CCn1nccc1C(=O)N[C@H](C(=O)Nc1cnc(-c2c(C)n[nH]c2C)c(F)c1)C(C1CC1)C1CC1 [Compound 52]	7.01	6.49
Cc1n[nH]c(C)c1-c1ccc(NC(=O)[C@@H](NC(=O)c2ccnn2C)C(C2CC2)C2(C)CC2)cn1 (stereo partly shown) [Compound 53]	7.26	6.33
CCn1nccc1C(=O)N[C@H](C(=O)Nc1ccc(-c2c(C)n[nH]c2C)nc1)C(C1CC1)C1(C)CC1 (stereo partly shown) [Compound 54]	7.33	6.62
Cc1nonc1C(=O)N[C@H](C(=O)Nc1ccc(-c2c(C)n[nH]c2C)nc1)C(C1CC1)C1(C)CC1 (stereo partly shown) [Compound 55]	7.28	6.06
Cc1n[nH]c(C)c1-c1ccc(NC(=O)[C@@H](NC(=O)c2ccnn2C(C)C)C(C2CC2)C2(C)CC2)cn1 (stereo partly shown) [Compound 56]	7.46	7.06
Cc1n[nH]c(C)c1-c1ncc(NC(=O)[C@@H](NC(=O)c2ccnn2C(C)C)C(C2CC2)C2(C)CC2)cc1F (stereo partly shown) [Compound 58]	7.38	6.66
Cc1nonc1C(=O)N[C@H](C(=O)Nc1cnc(-c2c(C)n[nH]c2C)c(F)c1)C(C1CC1)C1(C)CC1 (stereo partly shown) [Compound 59]	7.06	5.33
Cn1nccc1C(=O)N[C@H](C(=O)Nc1ccc(N2CCOCC2)nc1)[C@H](c1ccccc1Cl)C1(C)CC1 [Compound 60]	6.49	5.10
Cn1nccc1C(=O)N[C@H](C(=O)Nc1ccc(C2CCOCC2)cc1)[C@H](c1ccccc1Cl)C1(C)CC1 [Compound 62]	7.25	6.43
